Patent US20100068545A1, “Compositions and methods for wood preservation” (priority 2005, published 2010)

Legend:
decay fungi = test: AWPA E7-01 field stake test, decay ratings, Gainesville, Florida; type: in vivo; design: scale not given here
Method: (§1) Preservative treating solutions were prepared by the mixing the concentrates in Example 1 with ethanol. The treated stakes were installed in Gainesville, Fla. for field performance evaluation following the procedure described in American Wood Preservers' Association (AWPA) Standard E7-01: “Standard Method of Evaluating Wood Preservatives by Field Tests with Stakes”.
(§2) Preservative treating solutions were prepared by the mixing the concentrates in Example 1 with toluene. The treated stakes were installed in Gainesville, Fla. for field performance evaluation following the procedure described in American Wood Preservers' Association (AWPA) Standard E7-01: “Standard Method of Evaluating Wood Preservatives by Field Tests with Stakes”.
Preservative treating solutions were prepared by the mixing the concentrates in Example 2 and 13. The treated stakes were installed in Gainesville, Fla. for field performance evaluation following the procedure described in American Wood Preservers' Association (AWPA) Standard E7-01: “Standard Method of Evaluating Wood Preservatives by Field Tests with Stakes”. […]

termites = test: AWPA E7-01 field stake test, termite ratings, Gainesville, Florida; type: in vivo; design: scale not given here
Method: as §1, §2
Preservative treating solutions were prepared by the mixing the concentrates in Example 2 and 13. The treated stakes were installed in Gainesville, Fla. for field performance evaluation following the procedure described in American Wood Preservers' Association (AWPA) Standard E7-01: “Standard Method of Evaluating Wood Preservatives by Field Tests with Stakes”.
Preservative treating solutions were prepared by the mixing the concentrates in Example 1 with white spirits. The treated stakes were installed in Gainesville, Fla. for field performance evaluation following the procedure described in American Wood Preservers' Association (AWPA) Standard E7-01: “Standard Method of Evaluating Wood Preservatives by Field Tests with Stakes”.

brown rots or white rots = test: Accelerated decay testing in the lab; details: pyrethroid insecticide alone
Excerpt: Provided herein is an organic composition and method for use thereof in treatment of cellulosic material, more particularly wood. The composition comprises an azole or quaternary ammonium fungicide compound, and a pyrethroid insecticide. The composition imparts to the treated wood resistance to both fungi and insects. […] This has been confirmed by accelerated decay testing in the lab.

[1] = 12 months, retention 0.32 kg/m^3, Ex. 14, ethanol solution
[2] = 12 months, retention 0.32 kg/m^3, Ex. 15, toluene solution
[3] = 12 months, retention 0.32 kg/m^3, Ex. 16, concentrates of Ex. 2 and 13
[4] = 12 months, retention 0.48 kg/m^3, Ex. 14, ethanol solution
[5] = 12 months, retention 0.48 kg/m^3, Ex. 15, toluene solution
[6] = 12 months, retention 0.48 kg/m^3, Ex. 16, concentrates of Ex. 2 and 13
[7] = 12 months, retention 0.64 kg/m^3, Ex. 14, ethanol solution
[8] = 12 months, retention 0.64 kg/m^3, Ex. 15, toluene solution
[9] = 12 months, retention 0.64 kg/m^3, Ex. 16, concentrates of Ex. 2 and 13
[10] = 24 months, retention 0.32 kg/m^3, Ex. 14, ethanol solution
[11] = 24 months, retention 0.32 kg/m^3, Ex. 15, toluene solution
[12] = 24 months, retention 0.32 kg/m^3, Ex. 16, concentrates of Ex. 2 and 13
[13] = 24 months, retention 0.48 kg/m^3, Ex. 14, ethanol solution
[14] = 24 months, retention 0.48 kg/m^3, Ex. 15, toluene solution
[15] = 24 months, retention 0.48 kg/m^3, Ex. 16, concentrates of Ex. 2 and 13
[16] = 24 months, retention 0.64 kg/m^3, Ex. 14, ethanol solution
[17] = 24 months, retention 0.64 kg/m^3, Ex. 15, toluene solution
[18] = 24 months, retention 0.64 kg/m^3, Ex. 16, concentrates of Ex. 2 and 13
[19] = 36 months, retention 0.32 kg/m^3, Ex. 14, ethanol solution
[20] = 36 months, retention 0.32 kg/m^3, Ex. 15, toluene solution
[21] = 36 months, retention 0.32 kg/m^3, Ex. 16, concentrates of Ex. 2 and 13
[22] = 36 months, retention 0.48 kg/m^3, Ex. 14, ethanol solution
[23] = 36 months, retention 0.48 kg/m^3, Ex. 15, toluene solution
[24] = 36 months, retention 0.48 kg/m^3, Ex. 16, concentrates of Ex. 2 and 13
[25] = 36 months, retention 0.64 kg/m^3, Ex. 14, ethanol solution
[26] = 36 months, retention 0.64 kg/m^3, Ex. 15, toluene solution
[27] = 36 months, retention 0.64 kg/m^3, Ex. 16, concentrates of Ex. 2 and 13
[28] = 48 months, retention 0.32 kg/m^3, Ex. 14, ethanol solution
[29] = 48 months, retention 0.32 kg/m^3, Ex. 15, toluene solution
[30] = 48 months, retention 0.32 kg/m^3, Ex. 16, concentrates of Ex. 2 and 13
[31] = 48 months, retention 0.48 kg/m^3, Ex. 14, ethanol solution
[32] = 48 months, retention 0.48 kg/m^3, Ex. 15, toluene solution
[33] = 48 months, retention 0.48 kg/m^3, Ex. 16, concentrates of Ex. 2 and 13
[34] = 48 months, retention 0.64 kg/m^3, Ex. 14, ethanol solution
[35] = 48 months, retention 0.64 kg/m^3, Ex. 15, toluene solution
[36] = 48 months, retention 0.64 kg/m^3, Ex. 16, concentrates of Ex. 2 and 13

For `CC(C)(C)C(O)(CCc1ccc(Cl)cc1)Cn1cncn1` (racemic) [Tebuconazole, (RS)-1-p-chlorophenyl-4,4-dimethyl-3-(1H-1,2,4-triazol-1-ylmethyl)pentan-3-ol], the “Average Decay Rating” value (decay fungi; [1]) was 8.2, the “Average Decay Rating” value (decay fungi; [2]) was 8.2 and the “Average Decay Rating” value (decay fungi; [3]) was 8.2. For the same compound, the “Average Decay Rating” value (decay fungi; [4]) was 5.8, the “Average Decay Rating” value (decay fungi; [5]) was 5.8 and the “Average Decay Rating” value (decay fungi; [6]) was 5.8. The “Average Decay Rating” value (decay fungi; [7]) was 8.7, the “Average Decay Rating” value (decay fungi; [8]) was 8.7 and the “Average Decay Rating” value (decay fungi; [9]) was 8.7. For the same compound, the “Average Decay Rating” value (decay fungi; [10]) was 2.6, the “Average Decay Rating” value (decay fungi; [11]) was 2.6 and the “Average Decay Rating” value (decay fungi; [12]) was 2.6. For the same compound, the “Average Decay Rating” value (decay fungi; [13]) was 0.8, the “Average Decay Rating” value (decay fungi; [14]) was 0.8 and the “Average Decay Rating” value (decay fungi; [15]) was 0.8. For the same compound, the “Average Decay Rating” value (decay fungi; [16]) was 1.2, the “Average Decay Rating” value (decay fungi; [17]) was 1.2 and the “Average Decay Rating” value (decay fungi; [18]) was 1.2. The “Average Decay Rating” value (decay fungi; [19]) was 0.0, the “Average Decay Rating” value (decay fungi; [20]) was 0.0 and the “Average Decay Rating” value (decay fungi; [21]) was 0.0. The “Average Decay Rating” value (decay fungi; [22]) was 0.0, the “Average Decay Rating” value (decay fungi; [23]) was 0.0 and the “Average Decay Rating” value (decay fungi; [24]) was 0.0. For the same compound, the “Average Decay Rating” value (decay fungi; [25]) was 0.0, the “Average Decay Rating” value (decay fungi; [26]) was 0.0 and the “Average Decay Rating” value (decay fungi; [27]) was 0.0. The “Average Decay Rating” value (decay fungi; [28]) was 0.0, the “Average Decay Rating” value (decay fungi; [29]) was 0.0 and the “Average Decay Rating” value (decay fungi; [30]) was 0.0. The “Average Decay Rating” value (decay fungi; [31]) was 0.0, the “Average Decay Rating” value (decay fungi; [32]) was 0.0 and the “Average Decay Rating” value (decay fungi; [33]) was 0.0. For the same compound, the “Average Decay Rating” value (decay fungi; [34]) was 0.0, the “Average Decay Rating” value (decay fungi; [35]) was 0.0 and the “Average Decay Rating” value (decay fungi; [36]) was 0.0. The “Average Termite Rating” value (termites; [1]) was 4.2, the “Average Termite Rating” value (termites; [2]) was 4.2 and the “Average Termite Rating” value (termites; [3]) was 4.2. The “Average Termite Rating” value (termites; [4]) was 4.5, the “Average Termite Rating” value (termites; [5]) was 4.5 and the “Average Termite Rating” value (termites; [6]) was 4.5. For the same compound, the “Average Termite Rating” value (termites; [7]) was 4.8, the “Average Termite Rating” value (termites; [8]) was 4.8 and the “Average Termite Rating” value (termites; [9]) was 4.8. For the same compound, the “Average Termite Rating” value (termites; [10]) was 0.6, the “Average Termite Rating” value (termites; [11]) was 0.6 and the “Average Termite Rating” value (termites; [12]) was 0.6. The “Average Termite Rating” value (termites; [13]) was 1.2, the “Average Termite Rating” value (termites; [14]) was 1.2 and the “Average Termite Rating” value (termites; [15]) was 1.2. The “Average Termite Rating” value (termites; [16]) was 2.0, the “Average Termite Rating” value (termites; [17]) was 2.0 and the “Average Termite Rating” value (termites; [18]) was 2.0. For the same compound, the “Average Termite Rating” value (termites; [19]) was 0.0, the “Average Termite Rating” value (termites; [20]) was 0.0 and the “Average Termite Rating” value (termites; [21]) was 0.0. For the same compound, the “Average Termite Rating” value (termites; [22]) was 0.0, the “Average Termite Rating” value (termites; [23]) was 0.0 and the “Average Termite Rating” value (termites; [24]) was 0.0. The “Average Termite Rating” value (termites; [25]) was 0.0, the “Average Termite Rating” value (termites; [26]) was 0.0 and the “Average Termite Rating” value (termites; [27]) was 0.0. The “Average Termite Rating” value (termites; [28]) was 0.0, the “Average Termite Rating” value (termites; [29]) was 0.0 and the “Average Termite Rating” value (termites; [30]) was 0.0. The “Average Termite Rating” value (termites; [31]) was 0.0, the “Average Termite Rating” value (termites; [32]) was 0.0 and the “Average Termite Rating” value (termites; [33]) was 0.0. The “Average Termite Rating” value (termites; [34]) was 0.0, the “Average Termite Rating” value (termites; [35]) was 0.0 and the “Average Termite Rating” value (termites; [36]) was 0.0.
In the case of `Cc1c(COC(=O)[C@@H]2[C@H](/C=C(\Cl)C(F)(F)F)C2(C)C)cccc1-c1ccccc1` (racemic) [bifenthrin], the “Fungicidal activity against brown rots or white rots” value (from here on “Fungicidal activity”) (brown rots or white rots) is reported as “generally do not have fungicidal activity”.
In the case of `CC1(C)C(C=C(Cl)Cl)C1C(=O)OC(C#N)c1cccc(Oc2ccccc2)c1` (stereo not drawn) [cypermethrin], the “Fungicidal activity” value (brown rots or white rots) is reported as “generally do not have fungicidal activity”.
For `CC1(C)C(C=C(Cl)Cl)C1C(=O)OCc1cccc(Oc2ccccc2)c1` (stereo not drawn) [permethrin], the “Fungicidal activity” value (brown rots or white rots) was “generally do not have fungicidal activity”.
